# “Also recorded” adds a separate entry of the source. Like-named read-outs stand apart in the source and are kept apart here.
# Assays:
# [1] = target: T1, human serotonin transporter (hSERT) (Homo sapiens, UniProt P31645); test: Radioligand binding to cloned hSERT, [3H]citalopram, HEK-293 cell membranes; details: for Kd: Geometric Mean ± SEM, HCl salts, read-out: Equilibrium Dissociation Constant (KD) for Transporter Binding, hSERT (S); for Binding at hSERT compared to PRC200-SS: in words
# T1 construct: expressed in transfected cells; host or cells: HEK-293, stably transfected
# Description: (§1) HEK-293 cells expressing the recombinant hSERT or hDAT were incubated with Dulbecco's modified Eagles medium (MEM) supplemented with 0.1 mM nonessential amino acid solution for MEM, 5% v/v fetal bovine serum and 1 U/mL penicillin/streptomycin solution. Cells expressing the hNET transporter were incubated with Dulbecco's modified Eagles medium supplemented with 10% v/v fetal bovine serum and 100 U/mL penicillin/streptomycin solution and 2 mM L-glutamine. The cells were grown until 70-80% confluent on 175 cm^2 flasks in a humidified 10% CO2/90% air environment at 37° C., with the selecting antibiotic Geneticin sulfate at 250 μg/mL. The cells were incubated in 10% CO2, 90% air at 37° C. and 100% humidity.
# (§2) Cell membranes containing hSERT, hNET, or hDAT were prepared from the cell lines to assay ligand binding for each of the transporters. […] The washed cells were incubated for 5 minutes at 37° C. in 10 mL solution 1 containing 100 mM ethylene glycol-bis N,N,N′,N′-tetraacetic acid (EGTA). The cells were then scraped from the flask surface with a rubber spatula, placed into a centrifuge tube, and collected by centrifugation at 1000×g for 5 minutes at 4° C. The resulting supernatant was discarded, and the cell pellet was resuspended in 0.5 to1.0 mL of the appropriate binding buffer (described below). The resuspended cell pellet was homogenized using a Polytron for 10 seconds at setting 6. The resulting homogenate was centrifuged at about 36,000×g for 10 minutes at 4° C. The supernatant was discarded, and the pellet was resuspended in the same volume of the appropriate binding buffer and centrifuged again. The supernatant was discarded, and the final pellet containing cell membranes was resuspended in the appropriate binding buffer and stored at −80° C. until use.
# Radioligand binding assays for the indicated transporters were performed as follows. To assess binding to the cloned hSERT, cells expressing hSERT were homogenized in 50 mM Tris-HCl with 120 mM NaCl and 5 mM KCl (pH 7.4). The binding reaction consisted of 10 μg cell membrane protein, […] [^3H]citalopram (citalopram, [N-methyl-^3H], specific activity 79.0 Ci/mmol; PerkinElmer, Boston, Mass.), and varying concentrations of either unlabeled citalopram or the test compound. A reaction to determine non-specific binding consisted of 10 μg cell membrane protein, 0.5 nM [^3H]citalopram, and 1 μM final concentration of unlabeled citalopram. The reactions were incubated at 22° C. for 60 minutes. Following incubation, the reactions were terminated by rapid filtration through separate GF/B filter strips pretreated with 0.2% polyethylenimine in a 48-well Brandel cell harvester. The cell membrane-containing filter strips were then rinsed five times with ice-cold 0.9% NaCl. After rinsing, individual filters were cut from the strip and placed in a scintillation vial containing 6.5 mL of Redi-Safe (Beckman-Coulter, Fullerton, Calif.).
# (§3) The program was modified to calculate the Hill coefficient (nH). Data are presented as geometric mean±S.E.M. of at least three independent experiments. One-component models and two-component models were compared using the root mean square error of each fit and the F test.
# [2] = target: T2, human norepinephrine transporter (hNET) (Homo sapiens, UniProt P23975); test: Radioligand binding to cloned hNET, [3H]nisoxetine, HEK-293 cell membranes; details: Geometric Mean ± SEM; HCl salts; read-out: Equilibrium Dissociation Constant (KD) for Transporter Binding, hNET (N)
# T2 construct: expressed in transfected cells; host or cells: HEK-293, stably transfected
# Description: as §1, §2
# To assess binding to the cloned hNET, cells expressing hNET were homogenized in 50 mM Tris-HCl with 300 mM NaCl and 5 mM KCl (pH 7.4). The binding reaction consisted of 5 μg cell membrane protein, 0.5 nM [^3H]nisoxetine (nisoxetine HCl, [N-methyl-^3H], specific activity 82.0 Ci/mmol; Amersham, Arlington Hts., Ill.), and varying concentrations of either unlabeled nisoxetine or the test compound. A reaction to determine non-specific binding consisted of 5 μg cell membrane protein, 0.5 nM [^3H]nisoxetine, and 1 μM final concentration of unlabeled nisoxetine. The reactions were incubated at 22° C. for 60 minutes. Following incubation, the reactions were terminated by rapid filtration through separate GF/B filter strips pretreated with 0.2% polyethylenimine in a 48-well Brandel cell harvester. The cell membrane-containing filter strips were then rinsed five times with ice-cold 0.9% NaCl. After rinsing, individual filters were cut from the strip and placed in a scintillation vial containing 6.5 mL of Redi-Safe (Beckman-Coulter, Fullerton, Calif.).
# as §3
# [3] = target: T3, human dopamine transporter (hDAT) (Homo sapiens, UniProt Q01959); test: Radioligand binding to cloned hDAT, [3H]WIN35428, HEK-293 cell membranes
# T3 construct: expressed in transfected cells; host or cells: HEK-293, stably transfected
# Description: as §1, §2
# To assess binding to the cloned hDAT, cells expressing hDAT were homogenized in 50 mM Tris-HCl with 120 mM NaCl (pH 7.4). The binding reaction contained 15 μg cell membrane protein, 1 nM [^3H]WIN35428 (WIN35428, [N-methyl-^3H], specific activity 85.9 Ci/mmol; PerkinElmer, Boston, Mass.), and varying concentrations of either unlabeled WIN35428 or the test compound. A reaction to determine non-specific binding contained 15 μg cell membrane protein, 1 nM [^3H]WIN35428, and 10 μM final concentration of unlabeled WIN35428. The reactions were incubated at 22° C. for 1 hour. Following incubation, the reactions were terminated by rapid filtration through separate GF/B filter strips pretreated with 0.2% polyethylenimine in a 48-well Brandel cell harvester. The cell membrane-containing filter strips were then rinsed five times with ice-cold 0.9% NaCl. After rinsing, individual filters were cut from the strip and placed in a scintillation vial containing 6.5 mL of Redi-Safe (Beckman-Coulter, Fullerton, Calif.).
# as §3
# [4] = test system: hSERT, hNET, hDAT; test: Human transporter binding: rank order and range of potency over the three transporters; details: for Potency (rank-order of potency of binding; S = hSERT, N = hNET, D = hDAT): from KD values; for Potency Range (difference between most potent and least potent binding): ratio of KD over hSERT, hNET, hDAT
# Excerpt: as §3
# [5] = test system: Male Sprague-Dawley rats; test: Forced swim test in rats; format: in vivo, rat; details: for Antidepressant activity in forced swim test compared with imipramine (15 mg/kg IP): FIG. 12A
# Description: When rats are placed in a cylinder of water from which they cannot escape, they will remain immobile in the water for the majority of the test.
# Water was changed between trials, and the procedure involved a pretest and a 5-minute test separated by 24 hours. During the pretest, rats (adapted to the experimental room for no less than one hour) were placed in the cylinder for 15 minutes. Following this initial exposure, the rats were dried with towels and transferred to a “drying cage” situated under a warming lamp. […] The following day, rats were transferred to the experimental room and acclimated for at least one hour.
# The rat was considered immobile when floating motionless or making only those movements necessary to keep its head above the surface of the water. Scores for each behavior (swimming or immobility) were expressed as total counts per 5-minute session. Statistical analysis was performed using ANOVA followed by the Tukey test for post-hoc comparisons.
# [6] = target: hERG (Homo sapiens, UniProt Q12809); test: hERG assay: block of rubidium ion (Rb+) efflux from cells expressing hERG
# Description: Human “ether-a-go-go” (hERG) is an ion channel. Blockade of this channel can be predictive of causing cardiac arrhythmias in humans. hERG assays were performed to measure the ability of a compound to block rubidium ion (Rb^+) efflux from cells expressing hERG. Cells were pre-loaded with Rb^+, incubated with test compound, and then exposed to a buffer that opens the channel and allows the efflux of ions. Compounds as powder were dissolved in 100% DMSO to prepare 100 mM stock solutions. […] The stocks were stored at 23° C.
# The range of doses for the test compounds was 30 nM through 100,000 nM.
# [7] = target: T4, CYP2D6 (Homo sapiens, UniProt P10635); test: CYP2D6 inhibition, CYP2D6/AMMC kit (BD Biosciences), fluorescent substrate; format: in vitro ADME
# T4 construct: purchased BD Biosciences 459200
# Excerpt: This kit includes the use of a fluorescent P450 substrate (AMMC or 3-[2-(N,N-diethyl-N-methylamino)ethyl]-7-methoxy-4-methylcoumarin) and recombinant human P450.
# [8] = test system: rat 5-HT, NE and DA transport, synaptosomal preparations; test: Rat brain synaptosomal transport: rank order of potency; format: biochemical
# Description: The dissected tissues were separately homogenized in 20 volumes (cortical) or 40 volumes (striatal) of ice-cold, oxygenated HEPES buffer 0.32 M sucrose containing 11 mM glucose (pH 7.4) in a glass Potter-Elvehjem homogenizer with Teflon® pestle (8 strokes, 900 rpm). The homogenates were centrifuged at 1,000×g for 10 minutes. The resulting supernatant was decanted and further centrifuged at 20,000×g for 20 minutes at 4° C. […] The synaptosomal protein concentration was determined by using the BCA assay (Pierce Biotechnology Inc, Rockford, Ill.), according to the manufacturer's instructions. Synaptosomal protein (1.0-2.5 mg) was suspended in 1 mL oxygenated incubation buffer as defined above. Test amine compound was pre-incubated with the synaptosomal preparation for 30 minutes at 37° C. in a shaking water bath (80 oscillations/minute).
# [9] = Geometric Mean ± SEM, HCl salts, read-out: Equilibrium Dissociation Constant (KD) for Transporter Binding, hDAT (D)
# T3 sequence (Q01959 whole entry): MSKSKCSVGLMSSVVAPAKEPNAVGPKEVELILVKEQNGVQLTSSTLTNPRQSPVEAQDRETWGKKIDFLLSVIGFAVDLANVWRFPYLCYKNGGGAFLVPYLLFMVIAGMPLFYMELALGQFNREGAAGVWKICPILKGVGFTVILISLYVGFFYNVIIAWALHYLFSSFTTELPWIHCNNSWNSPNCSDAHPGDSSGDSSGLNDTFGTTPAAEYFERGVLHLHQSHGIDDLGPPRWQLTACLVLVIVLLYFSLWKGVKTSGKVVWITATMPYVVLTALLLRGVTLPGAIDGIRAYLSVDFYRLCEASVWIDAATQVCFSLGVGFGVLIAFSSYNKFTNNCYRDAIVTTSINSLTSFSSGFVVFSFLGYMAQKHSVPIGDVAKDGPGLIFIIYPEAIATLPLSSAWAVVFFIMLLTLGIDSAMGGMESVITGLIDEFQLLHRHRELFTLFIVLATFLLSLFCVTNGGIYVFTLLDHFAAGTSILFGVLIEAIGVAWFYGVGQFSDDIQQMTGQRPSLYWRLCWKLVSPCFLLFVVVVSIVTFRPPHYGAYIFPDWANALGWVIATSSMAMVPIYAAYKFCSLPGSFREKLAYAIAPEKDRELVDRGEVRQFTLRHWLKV
# hERG, sequence (Q12809 whole entry): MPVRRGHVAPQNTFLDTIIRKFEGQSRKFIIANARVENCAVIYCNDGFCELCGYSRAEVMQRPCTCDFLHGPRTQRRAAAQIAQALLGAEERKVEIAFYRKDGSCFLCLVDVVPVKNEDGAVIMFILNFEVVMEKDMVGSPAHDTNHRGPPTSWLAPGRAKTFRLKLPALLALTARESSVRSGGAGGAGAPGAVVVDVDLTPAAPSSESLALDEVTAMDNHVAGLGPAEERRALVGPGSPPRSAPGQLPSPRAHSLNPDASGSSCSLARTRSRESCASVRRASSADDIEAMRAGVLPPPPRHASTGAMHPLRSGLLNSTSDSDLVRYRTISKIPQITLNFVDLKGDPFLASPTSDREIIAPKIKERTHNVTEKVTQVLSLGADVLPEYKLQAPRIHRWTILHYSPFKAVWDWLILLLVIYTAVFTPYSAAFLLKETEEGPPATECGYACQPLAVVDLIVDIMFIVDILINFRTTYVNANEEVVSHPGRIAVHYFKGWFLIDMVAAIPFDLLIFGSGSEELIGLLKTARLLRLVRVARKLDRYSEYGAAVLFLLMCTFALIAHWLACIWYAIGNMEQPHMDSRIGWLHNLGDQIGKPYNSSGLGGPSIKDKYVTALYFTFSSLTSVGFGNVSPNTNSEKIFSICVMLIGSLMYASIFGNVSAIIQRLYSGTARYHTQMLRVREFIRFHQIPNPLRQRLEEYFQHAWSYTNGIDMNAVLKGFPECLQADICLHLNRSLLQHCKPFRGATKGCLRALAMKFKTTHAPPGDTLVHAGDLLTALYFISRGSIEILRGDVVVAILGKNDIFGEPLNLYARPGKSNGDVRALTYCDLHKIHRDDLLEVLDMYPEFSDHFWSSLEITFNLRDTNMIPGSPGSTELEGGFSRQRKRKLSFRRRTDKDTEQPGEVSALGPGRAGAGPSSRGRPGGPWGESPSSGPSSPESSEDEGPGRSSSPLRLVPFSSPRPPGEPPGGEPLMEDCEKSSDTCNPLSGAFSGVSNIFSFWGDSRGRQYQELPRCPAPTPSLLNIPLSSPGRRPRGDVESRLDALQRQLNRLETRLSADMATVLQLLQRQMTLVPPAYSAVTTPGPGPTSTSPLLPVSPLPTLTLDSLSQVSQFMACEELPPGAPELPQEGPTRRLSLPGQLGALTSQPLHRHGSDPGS
# T1 sequence (P31645 whole entry): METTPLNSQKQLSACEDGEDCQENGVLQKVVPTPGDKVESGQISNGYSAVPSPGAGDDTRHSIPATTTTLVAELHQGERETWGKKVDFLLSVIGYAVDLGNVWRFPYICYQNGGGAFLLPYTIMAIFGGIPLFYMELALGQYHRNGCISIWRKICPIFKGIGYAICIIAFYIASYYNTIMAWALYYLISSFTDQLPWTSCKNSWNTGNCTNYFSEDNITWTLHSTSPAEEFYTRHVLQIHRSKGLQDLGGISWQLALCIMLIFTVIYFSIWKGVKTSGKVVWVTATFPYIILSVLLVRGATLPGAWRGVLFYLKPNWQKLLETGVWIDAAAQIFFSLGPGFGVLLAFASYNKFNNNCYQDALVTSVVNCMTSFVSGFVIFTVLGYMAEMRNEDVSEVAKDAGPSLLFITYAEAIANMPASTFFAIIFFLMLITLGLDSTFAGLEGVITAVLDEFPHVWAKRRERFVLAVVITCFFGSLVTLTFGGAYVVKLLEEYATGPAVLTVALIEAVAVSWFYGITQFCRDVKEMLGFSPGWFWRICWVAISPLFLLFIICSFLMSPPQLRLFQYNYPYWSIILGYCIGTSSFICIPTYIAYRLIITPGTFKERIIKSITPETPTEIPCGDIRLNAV
# T4 sequence (P10635 whole entry): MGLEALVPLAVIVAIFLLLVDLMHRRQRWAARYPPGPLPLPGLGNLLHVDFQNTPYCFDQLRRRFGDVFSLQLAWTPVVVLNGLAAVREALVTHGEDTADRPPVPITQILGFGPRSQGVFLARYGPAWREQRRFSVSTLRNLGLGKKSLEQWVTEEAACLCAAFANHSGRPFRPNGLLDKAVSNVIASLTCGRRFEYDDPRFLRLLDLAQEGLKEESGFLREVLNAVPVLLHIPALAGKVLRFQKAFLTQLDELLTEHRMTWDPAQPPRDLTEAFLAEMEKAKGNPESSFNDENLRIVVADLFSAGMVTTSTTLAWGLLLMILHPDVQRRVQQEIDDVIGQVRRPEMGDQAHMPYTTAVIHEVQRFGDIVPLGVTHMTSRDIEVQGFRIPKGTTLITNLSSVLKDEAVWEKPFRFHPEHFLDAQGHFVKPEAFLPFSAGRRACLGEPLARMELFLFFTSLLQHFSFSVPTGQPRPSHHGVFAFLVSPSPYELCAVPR
# T2 sequence (P23975 whole entry): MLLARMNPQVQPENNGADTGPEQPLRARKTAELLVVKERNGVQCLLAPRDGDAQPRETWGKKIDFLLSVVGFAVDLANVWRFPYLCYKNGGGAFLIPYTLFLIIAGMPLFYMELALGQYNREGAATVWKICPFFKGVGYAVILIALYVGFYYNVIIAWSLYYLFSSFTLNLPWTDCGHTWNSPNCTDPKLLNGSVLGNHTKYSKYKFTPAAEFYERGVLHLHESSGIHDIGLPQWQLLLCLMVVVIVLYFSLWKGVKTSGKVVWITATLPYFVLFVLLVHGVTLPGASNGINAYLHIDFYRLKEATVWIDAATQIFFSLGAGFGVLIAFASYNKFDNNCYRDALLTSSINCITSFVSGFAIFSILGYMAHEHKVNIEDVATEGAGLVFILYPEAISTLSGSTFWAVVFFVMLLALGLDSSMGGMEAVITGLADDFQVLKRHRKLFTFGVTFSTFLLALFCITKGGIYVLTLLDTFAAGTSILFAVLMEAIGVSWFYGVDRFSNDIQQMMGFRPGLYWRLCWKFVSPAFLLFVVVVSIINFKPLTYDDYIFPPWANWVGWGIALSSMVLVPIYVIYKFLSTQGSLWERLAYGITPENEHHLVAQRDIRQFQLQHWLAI
Compound,Kd [1],Binding at hSERT compared to PRC200-SS [1],Kd [2],Kd [3],"Potency (rank-order of potency of binding; S = hSERT, N = hNET, D = hDAT) [4]",Potency Range (difference between most potent and least potent binding) [4],Immobility in forced swim test vs saline ([5]; 5 mg/kg IP),Swimming in forced swim test vs saline ([5]; 5 mg/kg IP),Antidepressant activity in forced swim test compared with imipramine (15 mg/kg IP) ([5]; 5 mg/kg IP),"Kd [3, 9]",further results
"CNC[C@H](c1ccc2ccccc2c1)[C@@H](Cl)c1ccccc1 [MCJ001-Cl-RS, (2S,3R)-3-chloro-N-methyl-2-(naphthalen-2-yl)-3-phenylpropan-1-amine]",1.1 ± 0.1 nM,greater binding at hSERT,10.4 ± 0.4 nM,7.9 ± 0.4 nM,S > D > N,9.5 fold,statistically (P<0.04) less immobility,statistically (P<0.04) more swimming behavior,antidepressant activity that was similar to that observed in rats treated with the positive control,,Binding at hDAT compared to PRC200-SS ([3]; in words): several fold more potent binding at hDAT
"CNC[C@H](c1ccc2ccccc2c1)[C@H](Cl)c1ccccc1 [MCJ001-Cl-SS, (2S,3S)-3-chloro-N-methyl-2-(naphthalen-2-yl)-3-phenylpropan-1-amine]",1.1 ± 0.1 nM,greater binding at hSERT,3.7 ± 0.5 nM,78 ± 5 nM,S > N > D,71 fold,statistically (P<0.04) less immobility,statistically (P<0.04) more swimming behavior,antidepressant activity that was similar to that observed in rats treated with the positive control,,IC50 [6]: 45.4 µM
"CNC[C@@H](c1ccc2ccccc2c1)[C@H](N)c1ccccc1 [MCJ001-NH2-SR, (2R,3S)-N1-methyl-2-(naphthalen-2-yl)-3-phenylpropane-1,3-diamine]",180 ± 10 nM,,166 ± 8 nM,,N > S > D,1.6 fold,,,,260 ± 20 nM,IC50 [7]: 4100 nM
"CNC[C@H](c1ccc2ccccc2c1)[C@H](OC(C)=O)c1ccccc1 [MCJ001-OAc-SS, (1S,2S)-3-(methylamino)-2-(naphthalen-2-yl)-1-phenylpropyl acetate]",55 ± 6 nM,,,,N > S > D,3.4 fold,statistically (P<0.04) less immobility,statistically (P<0.04) more swimming behavior,antidepressant activity that was similar to that observed in rats treated with the positive control,150 ± 20 nM,"Potency of inhibition at CYP2D6, in words ([7]; compared with PRC200-SS): markedly reduced the potency of inhibition at CYP2D6; IC50 ([7]; recombinant human P450, AMMC substrate, read-out: Mean CYP2D6 (IC50)): 600 nM; Blocking of hERG channel compared with PRC200-SS ([6]; in words): weaker than PRC200-SS at blocking this channel; IC50 ([6]; read-out: hERG (IC50), Rb+ efflux, eight doses in duplicate): 78.8 µM"
"CN1CO[C@H](c2ccccc2)[C@@H](c2ccc3ccccc3c2)C1 [MCJ001-OH-Cyc-SS, (5S,6S)-3-methyl-5-(naphthalen-2-yl)-6-phenyl-1,3-oxazinane]",1.8 ± 0.2 nM,greater binding at hSERT,2.7 ± 0.3 nM,52 ± 5 nM,S > N > D,29 fold,,,antidepressant activity that was similar to that observed in rats treated with the positive control,,"Immobility in forced swim test, 5 mg/kg IP vs 5 mg/kg PO of the same compound [5]: statistically (P≦0.04) less immobility than rats treated with MCJ001-OH-Cyc-SS (5 mg/kg PO); Immobility in forced swim test vs saline ([5]; 5 mg/kg IP, 5 mg/kg): statistically (P<0.04) less immobility; also recorded: statistically (P≦0.04) less immobility; Swimming in forced swim test vs saline ([5]; 5 mg/kg IP, 5 mg/kg): statistically (P<0.04) more swimming behavior; Climbing in forced swim test vs saline ([5]; 5 mg/kg PO): statistically (P≦0.04) more climbing; Immobility in forced swim test vs saline ([5]; 5 mg/kg PO): statistically (P≦0.04) less immobility; Swimming in forced swim test vs saline ([5]; 5 mg/kg PO): statistically (P≦0.04) more swimming"
"CN1Cc2c(N)cccc2C(c2ccccc2)C1 (stereo not shown) [Nomifensine, reference compound]",,,,,N > D > S,,,,,,"Potency (rank order, transport into rat brain synaptosomal preparations) [8]: N > D > S"

# Source: patent publication US8440724B2, “Inhibiting neurotransmitter reuptake” (Mayo Foundation for Medical Education and Research, priority 2008, dated 2013)
